Results reported in ChEMBL document CHEMBL6134927, “Novel Pyrido[3,4-d]pyrimidin-4-one and Pyrimido[5,4-d]pyrimidin-4-one Derivatives as TREM2 Agonists for Treating Parkinson's Disease” (ACS Med Chem Lett, 2025).

target: T1, Triggering receptor expressed on myeloid cells 2 (Homo sapiens, UniProt Q9NZC2); assay: Agonist activity at human TREM2 expressed in HEK cells co-expressing human DAP12 assessed as increase in Syk phosphorylation incubated for 30 mins by AlphaLISA assay; assay type: cell-based
T1 sequence (Q9NZC2 whole entry): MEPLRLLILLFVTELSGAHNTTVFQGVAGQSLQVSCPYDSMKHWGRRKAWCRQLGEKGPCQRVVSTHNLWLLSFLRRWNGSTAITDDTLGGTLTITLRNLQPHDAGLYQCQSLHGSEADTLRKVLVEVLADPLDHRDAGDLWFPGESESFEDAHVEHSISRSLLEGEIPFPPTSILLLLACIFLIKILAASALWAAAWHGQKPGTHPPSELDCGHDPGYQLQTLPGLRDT

In order of rising EC50:
1. Cc1cc([C@@H]2CN(c3nc(-c4ccc(Cl)cc4F)c4nc(C(F)F)n(C)c(=O)c4n3)CCO2)ccn1  1 nM
2. Cc1cc(C2CN(c3nc(-c4ccc(Cl)cc4F)c4nc(C(F)F)n(C)c(=O)c4n3)CCO2)ccn1 (stereo unspecified)  2 nM
3. C[C@H]1CN(c2nc(-c3ccc(Cl)cc3F)c3nc(C(F)(F)F)n(C)c(=O)c3n2)C[C@@H](c2cnn(C3CC3)c2)O1  2 nM
4. Cc1cc([C@@H]2CN(c3cc4c(=O)n(C)c(C(F)F)nc4c(-c4ccc(Cl)cc4F)n3)CCO2)ccn1  3 nM
5. COc1cc([C@H]2CN(c3nc(-c4ccc(Cl)cc4F)c4nc(C(F)(F)F)n(C)c(=O)c4n3)CCO2)ccn1  4 nM
6. Cn1cc([C@H]2CN(c3nc(-c4ccc(Cl)cc4F)c4nc(C(F)F)n(C)c(=O)c4n3)CCO2)cn1  5 nM
